Patent US9040707B2, “Bicyclic thiazoles as allosteric modulators of mGluR5 receptors” (Janssen Pharmaceutica NV, priority 2009, dated 2015)

Tests used:
human mGluR5a receptor = target: T1, human mGluR5a receptor (Homo sapiens, UniProt P41594); assay: Functional Assay 2: Ca2+ mobilization, HEK cells with human mGluR5a receptor (H10H cell line); assay type: cell-based; settings: H10H cell line; for EC50: glutamate EC20; for Emax: HEK293, maximum average response at a single concentration, relative to glutamate ECMax
T1 construct: host or cells: HEK293A (monoclones H10H and H12H)
Experimental: Human mGluR5a cDNA in pCMV6-XL6 mammalian expression plasmid was purchased from OriGene Technologies, Inc. (catalogue number SC326357) and subcloned into pcDNA3.1(−). […] Monoclones were named for the species (“H” for human) plus the location on the plate (e.g. “10H”).
The following day, the growth medium was removed and the cells were washed with assay buffer containing 1× Hank's balanced salt solution (Invitrogen, Carlsbad, Calif.), 20 mM HEPES, 2.5 mM probenecid, pH 7.4 and left with 20 μL of this reagent. Following this step, the cells were loaded with calcium indicator dye, fluo-4 AM, to a final concentration of 2 μM and incubated for 40-45 min at 37° C. The dye solution was removed and replaced with assay buffer. Cell plates were held for 10-15 min at room temperature and were then loaded into the Functional Drug Screening System 6000 (FDSS 6000, Hamamatsu, Japan).
After establishment of a fluorescence baseline for about 3 seconds, the compounds of the present invention were added to the cells, and the response in cells was measured. 2.3 minutes later an EC20 concentration of the mGluR5 receptor agonist glutamate was added to the cells, and the response of the cells was measured for about 1.7 minutes. All test compounds were dissolved and diluted to a concentration of 10 mM in 100% DMSO and then serially diluted into assay buffer for a 2× stock solution in 0.6% DMSO; stock compounds were then added to the assay for a final DMSO concentration of 0.3% after the first addition to the assay well. Calcium fluorescence measures were recorded as fold over basal fluorescence; raw data was then normalized to the maximal response to glutamate.
The concentration-response curves of compounds of the present invention, obtained in the presence of EC20 of mGluR5 receptor agonist glutamate to determine positive allosteric modulation, were generated using Microsoft Excel with IDBS XLfit add-ins. The raw data file containing all time points was used as the data source in the analysis template. This was saved by the FDSS as a tab-delimitted text file. Data were normalized using a static ratio function (F/F0) for each measurement of the total 350 values per well divided by each well's initial value. […] This is sufficient time to capture the peak amplitude of the cellular calcium response. […] Each of the three values collected at each concentration of test compound were weighted evenly. […] These two methods are in good agreement for curves with a clear plateau at the high concentration range.

human mGluR5 receptor = target: T2, human mGluR5 receptor (Homo sapiens, UniProt P41594); assay: Functional Assay 1: intracellular Ca2+ mobilization, positive allosteric modulation of glutamate EC20 response; assay type: cell-based; settings: for EC50: human mGluR5 over-expressing HEK-293 cells, glutamate EC20 (~0.2 μM), updated value; for Emax: maximum % effect relative to glutamate ECMax
T2 construct: expressed in transfected cells; host or cells: HEK-293
T2 sequence (P41594 21-1180 isoform P41594-2 limits assumed): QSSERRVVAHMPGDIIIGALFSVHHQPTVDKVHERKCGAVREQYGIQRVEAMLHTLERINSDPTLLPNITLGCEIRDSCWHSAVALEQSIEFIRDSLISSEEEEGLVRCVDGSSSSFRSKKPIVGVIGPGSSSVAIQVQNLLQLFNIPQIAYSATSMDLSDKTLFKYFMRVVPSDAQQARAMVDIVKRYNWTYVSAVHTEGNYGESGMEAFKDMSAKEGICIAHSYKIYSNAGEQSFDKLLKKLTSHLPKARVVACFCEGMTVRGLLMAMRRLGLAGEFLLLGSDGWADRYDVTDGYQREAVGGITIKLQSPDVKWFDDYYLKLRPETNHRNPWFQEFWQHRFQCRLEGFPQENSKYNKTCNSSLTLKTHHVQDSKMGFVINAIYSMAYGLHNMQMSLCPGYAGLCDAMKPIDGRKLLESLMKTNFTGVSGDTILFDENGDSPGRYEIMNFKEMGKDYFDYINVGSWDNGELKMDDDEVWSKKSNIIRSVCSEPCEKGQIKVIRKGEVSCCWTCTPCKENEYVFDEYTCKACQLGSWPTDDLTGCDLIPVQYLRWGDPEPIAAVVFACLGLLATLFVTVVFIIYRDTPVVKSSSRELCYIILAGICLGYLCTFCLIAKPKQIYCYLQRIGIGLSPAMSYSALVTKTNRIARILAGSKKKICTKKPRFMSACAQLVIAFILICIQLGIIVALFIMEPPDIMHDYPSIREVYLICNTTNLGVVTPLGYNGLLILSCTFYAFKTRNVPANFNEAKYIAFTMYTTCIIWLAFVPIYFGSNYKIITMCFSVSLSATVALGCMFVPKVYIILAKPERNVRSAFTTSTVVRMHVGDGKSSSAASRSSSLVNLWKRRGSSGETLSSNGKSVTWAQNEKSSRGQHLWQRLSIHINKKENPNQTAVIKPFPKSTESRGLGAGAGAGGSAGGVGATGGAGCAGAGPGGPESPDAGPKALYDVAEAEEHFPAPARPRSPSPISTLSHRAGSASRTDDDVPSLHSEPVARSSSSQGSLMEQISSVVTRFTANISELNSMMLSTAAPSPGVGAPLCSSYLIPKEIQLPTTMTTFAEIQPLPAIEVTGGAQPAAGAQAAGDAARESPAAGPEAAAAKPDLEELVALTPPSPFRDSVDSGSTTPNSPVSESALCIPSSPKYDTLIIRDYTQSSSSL
Experimental: HEK-293 cells were stable transfected with human mGluR5a cDNA in expression vector pcDNA4/TO. For Assay 1, these human mGluR5 receptor over-expressing HEK-293 cells were grown at a density of 40,000 cells/well in PDL-coated 384-well plates. The following day, cells were preloaded with the calcium-sensing dye Fluo-4 AM and various concentrations of test compound were added in the absence of exogenous glutamate to test for direct agonist activity. Shortly (2.5 min) thereafter, an EC20 equivalent of glutamate (˜0.2 μM) was added. The fluorescence signal was monitored using a Hamamatsu Functional Drug Screening System (FDSS) fluorescence plate reader following the addition of compound alone (direct agonist response) and then the further addition of an EC20 of glutamate (positive allosteric modulation response). The pEC50 was defined as the negative log of the test compound concentration which produced an increase in the glutamate EC20-mediated response that was 50% of maximum. Individual amplitudes were expressed as % effect by multiplying each amplitude by 100 and then dividing the product by the mean of the amplitudes derived from the glutamate ECMax-treated wells. Emax values reported in this application are defined as the maximum % effect obtained in a concentration-response curve.

T1 sequence (P41594 21-1180 isoform P41594-2 limits assumed): as above

Compound	melting point [°C]	EC50 (human mGluR5a receptor) [µM]	Emax (human mGluR5a receptor) [%]	EC50 (human mGluR5 receptor) [µM]	Emax (human mGluR5 receptor) [%]
O=C1c2sc(OCc3ccc(F)cc3F)nc2CCN1c1ccc(F)cc1F [Compound 23, 5-(2,4-difluorophenyl)-2-[(2,4-difluorophenyl)methoxy]-6,7-dihydro-thiazolo[5,4-c]pyridin-4(5H)-one]	104.3 to 107.2	–	–	0.955	54
O=C1c2sc(OCc3cccc(F)c3)nc2CCN1c1ccc(C(F)(F)F)cc1 [Compound 26, 2-[(3-fluorophenyl)methoxy]-6,7-dihydro-5-[4-(trifluoromethyl)phenyl]-thiazolo[5,4-c]pyridin-4(5H)-one]	130 to 131.5	–	–	0.214	46
C[C@@H](N1CCc2nc(COc3ccccc3F)sc2C1=O)C(C)(C)C [Compound 33, 2-[(2-fluorophenoxy)methyl]-6,7-dihydro-5-[(1R)-1,2,2-trimethylpropyl]-thiazolo[5,4-c]pyridin-4(5H)-one]	98.4 to 99.6	> 30.2	38	–	–
COc1ccccc1N1CCc2nc(COc3cccc(F)c3)sc2C1=O [Compound 37, 2-[(3-fluorophenoxy)methyl]-6,7-dihydro-5-(2-methoxyphenyl)-thiazolo[5,4-c]pyridin-4(5H)-one]	61.2 to 64.2	0.871	83	–	–
CN1CCCc2nc(COc3ccccc3)sc2C1=O [Compound 38, 5,6,7,8-tetrahydro-5-methyl-2-(phenoxymethyl)-4H-thiazolo[5,4-c]azepin-4-one]	105.9	1.07	70	–	–
O=C1c2sc(COc3cccc(F)c3)nc2CCN1C1CC1 [Compound 40, 5-cyclopropyl-2-[(3-fluorophenoxy)methyl]-6,7-dihydro-thiazolo[5,4-c]pyridin-4(5H)-one]	243.9 to 245.7	1.55	39	–	–
O=C1c2sc(COc3ccccc3F)nc2CCN1CC1CC1 [Compound 42, 5-(cyclopropylmethyl)-2-[(2-fluorophenoxy)methyl]-6,7-dihydro-thiazolo[5,4-c]pyridin-4(5H)-one]	85.3 to 87.1	1.1	67	–	–
O=C1c2sc(COc3ccc(F)cc3)nc2CCN1CC1CC1 [Compound 43, 5-(cyclopropylmethyl)-2-[(4-fluorophenoxy)methyl]-6,7-dihydro-thiazolo[5,4-c]pyridin-4(5H)-one]	254 to 259.1	0.759	59	–	–
O=C1c2sc(COc3ccccc3)nc2CCN1C1CC1 [Compound 44, 5-cyclopropyl-6,7-dihydro-2-(phenoxymethyl)-thiazolo[5,4-c]pyridin-4(5H)-one]	252.1 to 255.3	4.37	36	–	–
Cc1cccc(N2CCc3nc(COc4ccccc4)sc3C2=O)n1 [Compound 46, 6,7-dihydro-5-(6-methyl-2-pyridinyl)-2-(phenoxymethyl)-thiazolo[5,4-c]pyridin-4(5H)-one]	155.5	0.55	84	–	–
O=C1c2sc(COc3ccccc3F)nc2CCN1c1ccc(F)cn1 [Compound 55, 2-[(2-fluorophenoxy)methyl]-5-(5-fluoro-2-pyridinyl)-6,7-dihydro-thiazolo[5,4-c]pyridin-4(5H)-one]	151.8 to 153	0.55	63	–	–
O=C1c2sc(COc3ccccc3)nc2CCN1c1cncc(F)c1 [Compound 57, 5-(5-fluoro-3-pyridinyl)-6,7-dihydro-2-(phenoxymethyl)-thiazolo[5,4-c]pyridin-4(5H)-one]	167.6	1.7	62	–	–
O=C1c2sc(COc3ccccc3F)nc2CCN1C1CC1 [Compound 61, 5-cyclopropyl-2-[(2-fluorophenoxy)methyl]-6,7-dihydro-thiazolo[5,4-c]pyridin-4(5H)-one]	235.8 to 240.2	> 30.2	27	–	–
O=C1c2sc(COc3ccc(F)cc3)nc2CCN1C1CC1 [Compound 62, 5-cyclopropyl-2-[(4-fluorophenoxy)methyl]-6,7-dihydro-thiazolo[5,4-c]pyridin-4(5H)-one]	126.3 to 130.8	> 10	51	–	–
O=C1c2sc(OCc3cc(F)cc(F)c3)nc2CCN1c1ccc(F)cc1F [Compound 73, 5-(2,4-difluorophenyl)-2-[(3,5-difluorophenyl)methoxy]-6,7-dihydro-thiazolo[5,4-c]pyridin-4(5H)-one]	127 to 130.5	> 30.2	16	–	–

Continued, values first:

melting point [°C]	EC50 (human mGluR5a receptor) [µM]	Emax (human mGluR5a receptor) [%]	EC50 (human mGluR5 receptor) [µM]	Emax (human mGluR5 receptor) [%]	Compound
112.9	0.158	25	–	–	N#Cc1cccc(COc2nc3c(s2)C(=O)N(c2ccc(F)cc2F)CC3)c1 [Compound 20, 3-[[[5-(2,4-difluorophenyl)-4,5,6,7-tetrahydro-4-oxothiazolo[5,4-c]pyridin-2-yl]oxy]methyl]-benzonitrile]
95.2 to 97.2	0.331	54	–	–	Cc1cccc(COc2nc3c(s2)C(=O)N(c2ccc(F)cc2F)CC3)c1 [Compound 21, 5-(2,4-difluorophenyl)-6,7-dihydro-2-[(3-methylphenyl)methoxy]-thiazolo[5,4-c]pyridin-4(5H)-one]
91 to 92.5	0.372	45	–	–	O=C1c2sc(OCc3ccccc3F)nc2CCN1c1ccc(F)cc1 [Compound 22, 5-(4-fluorophenyl)-2-[(2-fluorophenyl)methoxy]-6,7-dihydro-thiazolo[5,4-c]pyridin-4(5H)-one]
152.8	0.174	63	–	–	O=C1c2sc(COc3cccc(F)c3)nc2CCN1c1ccc(F)cc1 [Compound 25, 2-[(3-fluorophenoxy)methyl]-5-(4-fluorophenyl)-6,7-dihydro-thiazolo[5,4-c]pyridin-4(5H)-one]
268.9 to 284.1	0.0977	81	–	–	O=C1c2sc(COc3ccccc3)nc2CCN1c1ccc(F)cc1F [Compound 29, 5-(2,4-difluorophenyl)-6,7-dihydro-2-(phenoxymethyl)-thiazolo[5,4-c]pyridin-4(5H)-one]
> 280	0.282	71	–	–	O=C1c2sc(COc3ccccc3F)nc2CCN1c1ccc(F)cc1 [Compound 31, 2-[(2-fluorophenoxy)methyl]-5-(4-fluorophenyl)-6,7-dihydro-thiazolo[5,4-c]pyridin-4(5H)-one]
> 280	0.224	81	–	–	O=C1c2sc(COc3ccc(F)cc3)nc2CCN1c1ccc(F)cc1F [Compound 32, 5-(2,4-difluorophenyl)-2-[(4-fluorophenoxy)methyl]-6,7-dihydro-thiazolo[5,4-c]pyridin-4(5H)-one]
292.6 to 302.9	0.209	–	–	–	O=C1c2sc(COc3ccccc3)nc2CCN1CC1CC1 [Compound 39, 5-(cyclopropylmethyl)-6,7-dihydro-2-(phenoxymethyl)-thiazolo[5,4-c]pyridin-4(5H)-one]
275.4 to 277.8	0.224	66	–	–	O=C1c2sc(COc3cccc(F)c3)nc2CCN1CC1CC1 [Compound 41, 5-(cyclopropylmethyl)-2-[(3-fluorophenoxy)methyl]-6,7-dihydro-thiazolo[5,4-c]pyridin-4(5H)-one]
185.8 to 186.8	0.295	56	–	–	O=C1c2sc(COc3ccc(F)cc3)nc2CCN1c1ccc(F)cn1 [Compound 53, 2-[(4-fluorophenoxy)methyl]-5-(5-fluoro-2-pyridinyl)-6,7-dihydro-thiazolo[5,4-c]pyridin-4(5H)-one]
125.8 to 126.4	0.288	79	–	–	O=C1c2sc(COc3cccc(F)c3)nc2CCN1c1ccc(F)cn1 [Compound 54, 2-[(3-fluorophenoxy)methyl]-5-(5-fluoro-2-pyridinyl)-6,7-dihydro-thiazolo[5,4-c]pyridin-4(5H)-one]
100.1 to 105.2	0.195	76	–	–	O=C1c2sc(COc3ccccc3F)nc2CCN1c1ccc(F)cc1F [Compound 59, 5-(2,4-difluorophenyl)-2-[(2-fluorophenoxy)methyl]-6,7-dihydro-thiazolo[5,4-c]pyridin-4(5H)-one]
